Measurements as given in patent US12480137B2, “Plants having increased tolerance to herbicides” (BASF SE, priority 2014, dated 2025).

What was measured:
Assay type in all cases: in vivo, Arabidopsis thaliana
A. thaliana WT L. erecta = test: Greenhouse phytotox, pre-emergent treatment
Protocol: (§1) Additionally, M2 or M3 Arabidopsis plants are tested for improved tolerance to cellulose biosynthesis-inhibiting herbicides in greenhouse studies (e. g. with the following cellulose biosynthesis-inhibiting herbicides: 6-cyclopentyl-N4-(2,3,4,5,6-pentafluorophenyl)-1,3,5-triazine-2,4-diamine; 6-(1-fluoro-1-methyl-ethyl)-N4-(2,3,4,5,6-pentafluorophenyl)-1,3,5-triazine-2,4-diamine; N4-(4-chloro-3,5,6-trifluoro-2-pyridyl)-6-(1-fluoro-1-methyl-ethyl)-1,3,5-triazine-2,4-diamine; 6-(2,6-difluorophenyl)-N4-(2,3,5,6-tetrafluorophenyl)-1,3,5-triazine-2,4-diamine; N4-(4-bromo-2,3,5,6-tetrafluoro-phenyl)-6-(1-fluoro-1-methyl-ethyl)-1,3,5-triazine-2,4-diamine.

[1] = tested on: Cesa3_S1040L, fpx1-1 mutant line; test: Greenhouse phytotox, pre-emergent treatment
Protocol: as §1

[2] = tested on: Cesa1_G1013R, fpx2-1 mutant line; test: Greenhouse phytotox, pre-emergent treatment
Protocol: as §1

[3] = tested on: Cesa1_P1010L, fpx2-2 mutant line; test: Greenhouse phytotox, pre-emergent treatment
Protocol: as §1

[4] = tested on: Cesa3_S983F, fpx1-3 mutant line; test: Greenhouse phytotox, pre-emergent treatment
Protocol: as §1

[5] = tested on: Cesa1_G1009D, fpx2-3 mutant line; test: Greenhouse phytotox, pre-emergent treatment
Protocol: as §1

[6] = tested on: Cesa3_S1037F, fpx1-2 mutant line; test: Greenhouse phytotox, pre-emergent treatment
Protocol: as §1

[7] = tested on: wildtype Arabidopsis plants; test: Growth inhibition of Arabidopsis lines in 48-well plates, tolerance factor from IC50; details: growth inhibition seven to ten days after seeding
From the text: (§2) For selection of cellulose biosynthesis inhibitor resistant plants EMS mutagenized seed populations of Arabidopsis thaliana are used. EMS mutagenized seed populations are either bought from Lehle Seeds (1102 South Industrial Blvd. Suite D, Round Rock, Texas USA) or are generated as described elsewhere (Heim D R, et. al. (1989) Plant Physiol. 90: 146-150). Causative mutations in CESA wildtype sequences (e.g. SEQ ID NO: 1 or 3) are identified as described by Scheible W R et. al. (2001, Proc. Natl. Acad. of Sci. 98: 10079-10084), McCourt et. al. (WO2013/142968) or with the use of next generation sequencing methods as described by Austin R S, et. al. (2011) Plant Journal 67: 715-725.
(§3) Selected Arabidopsis thaliana lines were assayed for improved resistance to azines like 6-cyclopentyl-N4-(2,3,4,5,6-pentafluorophenyl)-1,3,5-triazine-2,4-diamine; 6-(1-fluoro-1-methyl-ethyl)-N4-(2,3,4,5,6-pentafluorophenyl)-1,3,5-triazine-2,4-diamine; 6-cyclohexyl-N2-(2,3,4,5,6-pentafluorophenyl)-1,3,5-triazine-2,4-diamine; 6-(2,6-difluorophenyl)-N2-(2,3,5,6-tetrafluorophenyl)-1,3,5-triazine-2,4-diamine; N2-(4-chloro-3,5,6-trifluoro-2-pyridyl)-6-(1-fluoro-1-methyl-ethyl)-1,3,5-triazine-2,4-diamine in 48-well plates. Therefore, M2 or M3 seeds are surface sterilized by stirring for 5 min in ethanol+water (70+30 by volume), rinsing one time with ethanol+water (70+30 by volume) and two times with sterile, deionized water. The seeds are resuspended in 0.1% agar dissolved in water (w/v) Four to five seeds per well are plated on solid nutrient medium consisting of half-strength murashige skoog nutrient solution, pH 5.8 (Murashige and Skoog (1962) Physiologia Plantarum 15: 473-497). Compounds are dissolved in dimethylsulfoxid (DMSO) and added to the medium prior solidification (final DMSO concentration 0.1%). Multi well plates are incubated in a growth chamber at 22° C., 75% relative humidity and 110 μmol Phot*m^−2*s^−1 with 14:10 h light:dark photoperiod. Growth inhibition is evaluated seven to ten days after seeding in comparison to wild type plants. Tolerance factors are calculated based on IC50 values of growth inhibition of transformed versus non-transformed Arabidopsis plants (Table 3).

[8] = tested on: Arabidopsis mutant line Cesa3_S1040L; test: as above; details: growth inhibition seven to ten days after seeding
From the text: as §2, §3

[9] = tested on: Arabidopsis mutant line Cesa1_P1010L; test: as above; details: growth inhibition seven to ten days after seeding
From the text: as §2, §3

[10] = tested on: Arabidopsis mutant line Cesa3_S1037F; test: as above; details: growth inhibition seven to ten days after seeding
From the text: as §2, §3

[11] = tested on: Arabidopsis mutant line Cesa1_G1013R; test: as above; details: growth inhibition seven to ten days after seeding
From the text: as §2, §3

[12] = tested on: Arabidopsis mutant line Cesa3_S983F; test: as above; details: growth inhibition seven to ten days after seeding
From the text: as §2, §3

[13] = tested on: Arabidopsis mutant line Cesa1_G1009D; test: as above; details: growth inhibition seven to ten days after seeding
From the text: as §2, §3

| SMILES | Phytotox value on a scale from 0-100 (100 is 100% damage) (A. thaliana WT L. erecta; 0.25 g ai/ha) | Phytotox value on a scale from 0-100 (100 is 100% damage) (A. thaliana WT L. erecta; 0.98 g ai/ha) | Phytotox value on a scale from 0-100 (100 is 100% damage) (A. thaliana WT L. erecta; 3.91 g ai/ha) | Phytotox value on a scale from 0-100 (100 is 100% damage) ([1]; 0.25 g ai/ha) | Phytotox value on a scale from 0-100 (100 is 100% damage) ([1]; 0.98 g ai/ha) | Phytotox value on a scale from 0-100 (100 is 100% damage) ([1]; 3.91 g ai/ha) | Phytotox value on a scale from 0-100 (100 is 100% damage) ([2]; 0.25 g ai/ha) | Phytotox value on a scale from 0-100 (100 is 100% damage) ([2]; 0.98 g ai/ha) | Phytotox value on a scale from 0-100 (100 is 100% damage) ([2]; 3.91 g ai/ha) | Phytotox value on a scale from 0-100 (100 is 100% damage) ([3]; 0.25 g ai/ha) | Phytotox value on a scale from 0-100 (100 is 100% damage) ([3]; 0.98 g ai/ha) | Phytotox value on a scale from 0-100 (100 is 100% damage) ([3]; 3.91 g ai/ha) | Phytotox value on a scale from 0-100 (100 is 100% damage) ([4]; 0.25 g ai/ha) | Phytotox value on a scale from 0-100 (100 is 100% damage) ([4]; 0.98 g ai/ha) | Phytotox value on a scale from 0-100 (100 is 100% damage) ([4]; 3.91 g ai/ha) | Phytotox value on a scale from 0-100 (100 is 100% damage) ([5]; 0.25 g ai/ha) | Phytotox value on a scale from 0-100 (100 is 100% damage) ([5]; 0.98 g ai/ha) | Phytotox value on a scale from 0-100 (100 is 100% damage) ([5]; 3.91 g ai/ha) | Phytotox value on a scale from 0-100 (100 is 100% damage) ([6]; 0.25 g ai/ha) | Phytotox value on a scale from 0-100 (100 is 100% damage) ([6]; 0.98 g ai/ha) | further results |
| --- | --- | --- | --- | --- | --- | --- | --- | --- | --- | --- | --- | --- | --- | --- | --- | --- | --- | --- | --- | --- | --- |
| CC(C)(F)c1nc(N)nc(Nc2nc(F)c(F)c(Cl)c2F)n1 [N2-(4-chloro-3,5,6-trifluoro-2-pyridyl)-6-(1-fluoro-1-methyl-ethyl)-1,3,5-triazine-2,4-diamine] | 60 | 83 | 99 | 15 | 78 | 53 | 50 | 70 | 80 | 25 | 78 | 98 | 55 | 48 | 13 | 43 | 93 | 99 | 15 | 25 | Phytotox value on a scale from 0-100 (100 is 100% damage) (A. thaliana WT L. erecta; 0.0625 g ai/ha): 45; Phytotox value on a scale from 0-100 (100 is 100% damage) ([1]; 0.0625 g ai/ha): 13; Phytotox value on a scale from 0-100 (100 is 100% damage) ([2]; 0.0625 g ai/ha): 40; Phytotox value on a scale from 0-100 (100 is 100% damage) ([3]; 0.0625 g ai/ha): 50; Phytotox value on a scale from 0-100 (100 is 100% damage) ([4]; 0.0625 g ai/ha): 23; Phytotox value on a scale from 0-100 (100 is 100% damage) ([5]; 0.0625 g ai/ha): 30; Phytotox value on a scale from 0-100 (100 is 100% damage) ([6]; 0.0625 g ai/ha): 5; Phytotox value on a scale from 0-100 (100 is 100% damage) ([6]; 3.91 g ai/ha): 25; Relative tolerance rate (wildtype = 1.0) [7]: 1; Relative tolerance rate (wildtype = 1.0) [8]: 4; Relative tolerance rate (wildtype = 1.0) [9]: 1; Relative tolerance rate (wildtype = 1.0) [10]: 10; Relative tolerance rate (wildtype = 1.0) [11]: 10; Relative tolerance rate (wildtype = 1.0) [12]: 4; Relative tolerance rate (wildtype = 1.0) [13]: 1 |
| Nc1nc(Nc2c(F)c(F)c(F)c(F)c2F)nc(C2CCCCC2)n1 [6-cyclohexyl-N2-(2,3,4,5,6-pentafluorophenyl)-1,3,5-triazine-2,4-diamine] |  |  |  |  |  |  |  |  |  |  |  |  |  |  |  |  |  |  |  |  | Relative tolerance rate (wildtype = 1.0) [7]: 1; Relative tolerance rate (wildtype = 1.0) [8]: 10; Relative tolerance rate (wildtype = 1.0) [9]: 1; Relative tolerance rate (wildtype = 1.0) [10]: 1; Relative tolerance rate (wildtype = 1.0) [11]: 4; Relative tolerance rate (wildtype = 1.0) [12]: 1; Relative tolerance rate (wildtype = 1.0) [13]: 1 |
| CC(C)(F)c1nc(N)nc(Nc2c(F)c(F)c(Br)c(F)c2F)n1 [N4-(4-bromo-2,3,5,6-tetrafluoro-phenyl)-6-(1-fluoro-1-methyl-ethyl)-1,3,5-triazine-2,4-diamine] | 8 | 35 | 97 | 13 | 5 | 63 | 10 | 10 | 35 | 25 | 25 | 88 | 35 | 23 | 25 | 50 | 35 | 68 | 28 | 18 | Phytotox value on a scale from 0-100 (100 is 100% damage) (A. thaliana WT L. erecta; 15.63 g ai/ha): 100; Phytotox value on a scale from 0-100 (100 is 100% damage) ([1]; 15.63 g ai/ha): 93; Phytotox value on a scale from 0-100 (100 is 100% damage) ([2]; 15.63 g ai/ha): 73; Phytotox value on a scale from 0-100 (100 is 100% damage) ([3]; 15.63 g ai/ha): 99; Phytotox value on a scale from 0-100 (100 is 100% damage) ([4]; 15.63 g ai/ha): 45; Phytotox value on a scale from 0-100 (100 is 100% damage) ([5]; 15.63 g ai/ha): 99; Phytotox value on a scale from 0-100 (100 is 100% damage) ([6]; 3.91 g ai/ha): 33; Phytotox value on a scale from 0-100 (100 is 100% damage) ([6]; 15.63 g ai/ha): 30 |
